Experimental data from ChEMBL document CHEMBL3885861, “Open TG-GATES”.

Species on record: Rattus norvegicus
Test: Open TG-GATES - Regimen: Daily Repeat
Type: toxicity, organism-based, Sprague-Dawley
Parameters: regimen Daily Repeat, gender Male, age 6 weeks
Conditions: in vivo, po, route gavage; for APTT / Bas / Eos / Fbg / Hb / Ht / Lym / MCH / MCHC / MCV / Mono / Neu / PT / Plat / RBC / Ret / WBC: tissue Blood; for KIDNEY_L / KIDNEY_R / KIDNEY_TOTAL: tissue Kidney; for LIVER: tissue Liver; for A/G / ALP / ALT / AST / BUN / CRE / Ca / Cl / DBIL / GLC / IP / K / LDH / Na / PL / RALB / TBIL / TC / TG / TP / gamma-GTP: tissue Plasma
[1] = 200 mg/kg, 72 h, dose level Middle, time 3 day
[2] = 200 mg/kg, […], dose level Middle, time 7 day
[3] = 200 mg/kg, […], dose level Middle, time 14 day
[4] = 200 mg/kg, […], dose level Middle, time 28 day
[5] = 600 mg/kg, 72 h, dose level High, time 3 day
[6] = 600 mg/kg, […], dose level High, time 7 day
[7] = 600 mg/kg, […], dose level High, time 14 day
[8] = 600 mg/kg, […], dose level High, time 28 day

C[C@](N)(Cc1ccc(O)c(O)c1)C(=O)O [METHYLDOPA]
TERMINAL_BW [1]: 196.2 g
APTT [1]: 15.9 s
Bas [1]: 0%
Eos [1]: 0.8%
Fbg [1]: 292.8 mg/dL
Hb [1]: 13.8 g/dL
Ht [1]: 40.6%
Lym [1]: 79.4%
MCH [1]: 22.1 pg
MCHC [1]: 34%
MCV [1]: 65 fL
Mono [1]: 2.6%
Neu [1]: 16.4%
PT [1]: 12.7 s
Plat [1]: 107.2 x10_4/uL
RBC [1]: 626 x10_4/ul
Ret [1]: 7.2%
WBC [1]: 59.1 x10_2/uL
KIDNEY_L [1]: 0.9 g
KIDNEY_R [1]: 0.9 g
KIDNEY_TOTAL [1]: 1.9 g
LIVER [1]: 8.5 g
A/G [1]: 0.9
ALP [1]: 1722.4 IU/L
ALT [1]: 53.4 IU/L
AST [1]: 73 IU/L
BUN [1]: 16.6 mg/dL
CRE [1]: 0.2 mg/dL
Ca [1]: 11.2 mg/dL
Cl [1]: 105.8 meq/L
DBIL [1]: 0.008 mg/dL
GLC [1]: 174 mg/dL
IP [1]: 8.4 mg/dL
K [1]: 4.5 meq/L
LDH [1]: 71.4 IU/L
Na [1]: 145.8 meq/L
PL [1]: 144 mg/dL
RALB [1]: 2.7 g/dL
TBIL [1]: 0.062 mg/dL
TC [1]: 97 mg/dL
TG [1]: 34 mg/dL
TP [1]: 5.8 g/dL
gamma-GTP [1]: 1 IU/L
TERMINAL_BW [2]: 218.2 g
TERMINAL_BW [3]: 271 g
TERMINAL_BW [4]: 346.4 g
APTT [2]: 17.4 s
Bas [2]: 0%
Eos [2]: 1%
Fbg [2]: 269.4 mg/dL
Hb [2]: 14.1 g/dL
Ht [2]: 40.6%
Lym [2]: 78.8%
MCH [2]: 21.5 pg
MCHC [2]: 34.7%
MCV [2]: 61.9 fL
Mono [2]: 3.6%
Neu [2]: 16.2%
PT [2]: 12.2 s
Plat [2]: 122.9 x10_4/uL
RBC [2]: 656.4 x10_4/ul
Ret [2]: 4.5%
WBC [2]: 71.2 x10_2/uL
APTT [3]: 16.1 s
Bas [3]: 0%
Eos [3]: 1%
Fbg [3]: 278.2 mg/dL
Hb [3]: 13.8 g/dL
Ht [3]: 39.5%
Lym [3]: 80.6%
MCH [3]: 20.9 pg
MCHC [3]: 34.9%
MCV [3]: 59.9 fL
Mono [3]: 1.8%
Neu [3]: 16.2%
PT [3]: 14.2 s
Plat [3]: 111.8 x10_4/uL
RBC [3]: 659.4 x10_4/ul
Ret [3]: 4.9%
WBC [3]: 82.5 x10_2/uL
APTT [4]: 17.8 s
Bas [4]: 0%
Eos [4]: 1.2%
Fbg [4]: 280 mg/dL
Hb [4]: 15.1 g/dL
Ht [4]: 43%
Lym [4]: 81.2%
MCH [4]: 19.8 pg
MCHC [4]: 35.1%
MCV [4]: 56.5 fL
Mono [4]: 1.4%
Neu [4]: 15.6%
PT [4]: 14 s
Plat [4]: 101.7 x10_4/uL
RBC [4]: 760.8 x10_4/ul
Ret [4]: 2.3%
WBC [4]: 76.9 x10_2/uL
KIDNEY_L [2]: 0.9 g
KIDNEY_R [2]: 0.9 g
KIDNEY_TOTAL [2]: 1.9 g
KIDNEY_L [3]: 1.1 g
KIDNEY_R [3]: 1 g
KIDNEY_TOTAL [3]: 2.1 g
KIDNEY_L [4]: 1.2 g
KIDNEY_R [4]: 1.2 g
KIDNEY_TOTAL [4]: 2.4 g
LIVER [2]: 8.8 g
LIVER [3]: 10.2 g
LIVER [4]: 12.9 g
A/G [2]: 0.9
ALP [2]: 1381.2 IU/L
ALT [2]: 45.4 IU/L
AST [2]: 67.8 IU/L
BUN [2]: 14.2 mg/dL
CRE [2]: 0.2 mg/dL
Ca [2]: 10.8 mg/dL
Cl [2]: 107.4 meq/L
DBIL [2]: 0.01 mg/dL
GLC [2]: 179.8 mg/dL
IP [2]: 7.7 mg/dL
K [2]: 4.3 meq/L
LDH [2]: 54.2 IU/L
Na [2]: 143.4 meq/L
PL [2]: 132.4 mg/dL
RALB [2]: 2.7 g/dL
TBIL [2]: 0.068 mg/dL
TC [2]: 84.2 mg/dL
TG [2]: 36.2 mg/dL
TP [2]: 5.7 g/dL
gamma-GTP [2]: 0.8 IU/L
A/G [3]: 0.8
ALP [3]: 1316.6 IU/L
ALT [3]: 42.2 IU/L
AST [3]: 61.8 IU/L
BUN [3]: 12.6 mg/dL
CRE [3]: 0.2 mg/dL
Ca [3]: 11 mg/dL
Cl [3]: 105.2 meq/L
DBIL [3]: 0.002 mg/dL
GLC [3]: 182.2 mg/dL
IP [3]: 7.1 mg/dL
K [3]: 4.4 meq/L
LDH [3]: 58 IU/L
Na [3]: 141.6 meq/L
PL [3]: 137 mg/dL
RALB [3]: 2.6 g/dL
TBIL [3]: 0.054 mg/dL
TC [3]: 87.6 mg/dL
TG [3]: 35.2 mg/dL
TP [3]: 5.7 g/dL
gamma-GTP [3]: 0.8 IU/L
A/G [4]: 0.8
ALP [4]: 1006.8 IU/L
ALT [4]: 39.8 IU/L
AST [4]: 55.4 IU/L
BUN [4]: 13.2 mg/dL
CRE [4]: 0.2 mg/dL
Ca [4]: 10.7 mg/dL
Cl [4]: 104.8 meq/L
DBIL [4]: 0.018 mg/dL
GLC [4]: 182.2 mg/dL
IP [4]: 6.4 mg/dL
K [4]: 4 meq/L
LDH [4]: 39.8 IU/L
Na [4]: 142.8 meq/L
PL [4]: 144.6 mg/dL
RALB [4]: 2.7 g/dL
TBIL [4]: 0.052 mg/dL
TC [4]: 89.2 mg/dL
TG [4]: 50.8 mg/dL
TP [4]: 6.1 g/dL
gamma-GTP [4]: 1.2 IU/L
TERMINAL_BW [5]: 188.1 g
APTT [5]: 17.3 s
Bas [5]: 0%
Eos [5]: 1.2%
Fbg [5]: 240 mg/dL
Hb [5]: 14.2 g/dL
Ht [5]: 41.8%
Lym [5]: 83.2%
MCH [5]: 21.4 pg
MCHC [5]: 34%
MCV [5]: 62.9 fL
Mono [5]: 2.4%
Neu [5]: 12.6%
PT [5]: 12.8 s
Plat [5]: 108 x10_4/uL
RBC [5]: 665.2 x10_4/ul
Ret [5]: 4.2%
WBC [5]: 54.3 x10_2/uL
KIDNEY_L [5]: 0.9 g
KIDNEY_R [5]: 0.9 g
KIDNEY_TOTAL [5]: 1.7 g
LIVER [5]: 8.1 g
A/G [5]: 0.8
ALP [5]: 1746 IU/L
ALT [5]: 54.4 IU/L
AST [5]: 74 IU/L
BUN [5]: 18.2 mg/dL
CRE [5]: 0.2 mg/dL
Ca [5]: 10.9 mg/dL
Cl [5]: 106.6 meq/L
DBIL [5]: 0.01 mg/dL
GLC [5]: 167.2 mg/dL
IP [5]: 7.8 mg/dL
K [5]: 4.1 meq/L
LDH [5]: 72.2 IU/L
Na [5]: 146.2 meq/L
PL [5]: 153 mg/dL
RALB [5]: 2.6 g/dL
TBIL [5]: 0.054 mg/dL
TC [5]: 95.6 mg/dL
TG [5]: 37.2 mg/dL
TP [5]: 5.5 g/dL
gamma-GTP [5]: 1 IU/L
TERMINAL_BW [6]: 207.4 g
TERMINAL_BW [7]: 241.7 g
TERMINAL_BW [8]: 321.4 g
APTT [6]: 16.1 s
Bas [6]: 0%
Eos [6]: 1.2%
Fbg [6]: 259 mg/dL
Hb [6]: 14.4 g/dL
Ht [6]: 42.1%
Lym [6]: 81.6%
MCH [6]: 20.5 pg
MCHC [6]: 34.2%
MCV [6]: 60 fL
Mono [6]: 2.8%
Neu [6]: 14.4%
PT [6]: 12.2 s
Plat [6]: 106.1 x10_4/uL
RBC [6]: 702 x10_4/ul
Ret [6]: 3.6%
WBC [6]: 67.6 x10_2/uL
APTT [7]: 16.5 s
Bas [7]: 0%
Eos [7]: 0.8%
Fbg [7]: 277 mg/dL
Hb [7]: 14.2 g/dL
Ht [7]: 40.9%
Lym [7]: 83.8%
MCH [7]: 21.1 pg
MCHC [7]: 34.7%
MCV [7]: 60.8 fL
Mono [7]: 1.8%
Neu [7]: 13%
PT [7]: 14.2 s
Plat [7]: 111.5 x10_4/uL
RBC [7]: 673.2 x10_4/ul
Ret [7]: 4.6%
WBC [7]: 86.9 x10_2/uL
APTT [8]: 16.8 s
Bas [8]: 0%
Eos [8]: 1.2%
Fbg [8]: 300.8 mg/dL
Hb [8]: 14.9 g/dL
Ht [8]: 43.2%
Lym [8]: 75.4%
MCH [8]: 19.7 pg
MCHC [8]: 34.5%
MCV [8]: 57.2 fL
Mono [8]: 2%
Neu [8]: 21.2%
PT [8]: 14.1 s
Plat [8]: 101.5 x10_4/uL
RBC [8]: 756.4 x10_4/ul
Ret [8]: 2.4%
WBC [8]: 68.4 x10_2/uL
KIDNEY_L [6]: 0.9 g
KIDNEY_R [6]: 0.9 g
KIDNEY_TOTAL [6]: 1.8 g
KIDNEY_L [7]: 1 g
KIDNEY_R [7]: 1 g
KIDNEY_TOTAL [7]: 2 g
KIDNEY_L [8]: 1.2 g
KIDNEY_R [8]: 1.2 g
KIDNEY_TOTAL [8]: 2.5 g
LIVER [6]: 8.1 g
LIVER [7]: 9.1 g
LIVER [8]: 11.7 g
A/G [6]: 0.9
ALP [6]: 1646.8 IU/L
ALT [6]: 51 IU/L
AST [6]: 88.4 IU/L
BUN [6]: 14.6 mg/dL
CRE [6]: 0.2 mg/dL
Ca [6]: 10.9 mg/dL
Cl [6]: 107.6 meq/L
DBIL [6]: 0.008 mg/dL
GLC [6]: 179.2 mg/dL
IP [6]: 7.8 mg/dL
K [6]: 4.4 meq/L
LDH [6]: 66.4 IU/L
Na [6]: 146 meq/L
PL [6]: 133.2 mg/dL
RALB [6]: 2.7 g/dL
TBIL [6]: 0.064 mg/dL
TC [6]: 87.4 mg/dL
TG [6]: 26 mg/dL
TP [6]: 5.7 g/dL
gamma-GTP [6]: 1.2 IU/L
A/G [7]: 0.8
ALP [7]: 1330.4 IU/L
ALT [7]: 43.8 IU/L
AST [7]: 65 IU/L
BUN [7]: 12.2 mg/dL
CRE [7]: 0.2 mg/dL
Ca [7]: 11.2 mg/dL
Cl [7]: 105.4 meq/L
DBIL [7]: 0.002 mg/dL
GLC [7]: 179.6 mg/dL
IP [7]: 7.9 mg/dL
K [7]: 4.7 meq/L
LDH [7]: 53.4 IU/L
Na [7]: 143 meq/L
PL [7]: 139.4 mg/dL
RALB [7]: 2.7 g/dL
TBIL [7]: 0.054 mg/dL
TC [7]: 91 mg/dL
TG [7]: 26.4 mg/dL
TP [7]: 5.8 g/dL
gamma-GTP [7]: 1 IU/L
A/G [8]: 0.8
ALP [8]: 1178.8 IU/L
ALT [8]: 40 IU/L
AST [8]: 56.8 IU/L
BUN [8]: 13 mg/dL
CRE [8]: 0.2 mg/dL
Ca [8]: 11 mg/dL
Cl [8]: 104.4 meq/L
DBIL [8]: 0.016 mg/dL
GLC [8]: 177.2 mg/dL
IP [8]: 7.4 mg/dL
K [8]: 4.3 meq/L
LDH [8]: 39.2 IU/L
Na [8]: 144.8 meq/L
PL [8]: 140.6 mg/dL
RALB [8]: 2.7 g/dL
TBIL [8]: 0.062 mg/dL
TC [8]: 84.4 mg/dL
TG [8]: 37.6 mg/dL
TP [8]: 6 g/dL
gamma-GTP [8]: 1 IU/L
